# Results reported in ChEMBL document CHEMBL1149582, “Synthesis of penaresidin derivatives and its biological activity” (Bioorg Med Chem, 2007).
# Key:
# L1210 = test: Cytotoxicity against mouse L1210 cells; type: functional, cell-based
# KB = test: Cytotoxicity against human KB cells; type: functional, cell-based
# A549 = test: Cytotoxicity against human A549 cells; type: functional, cell-based
# [1] = Cytotoxicity against human […] cells; type: functional, cell-based
# Bacillus subtilis = test: Antibacterial activity against Bacillus subtilis […]; type: functional
# Escherichia coli = test: Antibacterial activity against Escherichia coli ATCC 25922; type: functional
# Micrococcus luteus = test: Antibacterial activity against Micrococcus luteus IFM 2066; type: functional
# Staphylococcus aureus = test: Antibacterial activity against Staphylococcus aureus 209P; type: functional
# Cryptococcus neoformans = test: Antibacterial activity against Cryptococcus neoformans IFM 46914; type: functional
# Candida albicans = test: Antibacterial activity against Candida albicans ATCC 90028; type: functional
# Aspergillus niger = test: Antibacterial activity against Aspergillus niger IFM 5368; type: functional
MIC (Bacillus subtilis),MIC (Escherichia coli),MIC (Micrococcus luteus),MIC (Staphylococcus aureus),MIC (Cryptococcus neoformans),MIC (Candida albicans),MIC (Aspergillus niger),SMILES,IC50 (L1210),IC50 (KB),IC50 (A549),IC50 [1]
–,–,–,–,–,–,–,CCCCCCCCCCCCCC[C@H]1N[C@@H](CO)[C@H]1O,> 10 µg/mL,> 10 µg/mL,1.38 µg/mL,1.65 µg/mL
8.35 µg/mL,> 16.7 µg/mL,4.18 µg/mL,16.7 µg/mL,> 16.7 µg/mL,> 16.7 µg/mL,> 16.7 µg/mL,CCCCCCCCCCCCCC[C@H]1N[C@H](CO)[C@H]1O,4.5 µg/mL,6 µg/mL,> 2 µg/mL,1.23 µg/mL
> 16.7 µg/mL,> 16.7 µg/mL,> 16.7 µg/mL,> 16.7 µg/mL,> 16.7 µg/mL,> 16.7 µg/mL,> 16.7 µg/mL,CC(C)CC[C@H](O)CCCCCCCCC[C@@H]1N[C@@H](CO)[C@@H]1O,2.9 µg/mL,> 10 µg/mL,> 2 µg/mL,> 2 µg/mL
16.7 µg/mL,> 16.7 µg/mL,8.35 µg/mL,> 16.7 µg/mL,> 16.7 µg/mL,> 16.7 µg/mL,> 16.7 µg/mL,CCCCCCCCCCCCCC[C@@H]1N[C@H](CO)[C@H]1O,4.5 µg/mL,> 10 µg/mL,1.97 µg/mL,0.79 µg/mL
> 16.7 µg/mL,> 16.7 µg/mL,> 16.7 µg/mL,> 16.7 µg/mL,> 16.7 µg/mL,> 16.7 µg/mL,> 16.7 µg/mL,CCCCCCCCCCCCCC[C@@H]1N[C@H](CO)[C@@H]1O,7.5 µg/mL,> 10 µg/mL,> 2 µg/mL,> 2 µg/mL
4.18 µg/mL,> 16.7 µg/mL,1.84 µg/mL,8.35 µg/mL,> 16.7 µg/mL,> 16.7 µg/mL,> 16.7 µg/mL,CCCCCCCCCCCCCC[C@@H]1N[C@@H](CO)[C@@H]1O,4.5 µg/mL,3.4 µg/mL,0.34 µg/mL,0.56 µg/mL
4.18 µg/mL,8.35 µg/mL,4.18 µg/mL,8.35 µg/mL,> 16.7 µg/mL,> 16.7 µg/mL,> 16.7 µg/mL,CCCCCCCCCCCCCC[C@H]1N[C@@H](CO)[C@@H]1O,1.6 µg/mL,3.2 µg/mL,0.22 µg/mL,0.17 µg/mL
